According to patent publication US8461082B2, “Herbicidal composition and method for removing unwanted foliage” (priority 2006, dated 2013):

How the values were obtained:
[1] = Examples 4-6 mixing in 1000 L commercial spray tank, dissolution and pH; format: physicochemical
From the text: A commercial “Silvan” Trailing Boom Spray fitted with a 1000 L tank was used for this experiment. The boom was 10 m wide.
The glyphosate material used was glyphosate acid (purity 95%) with a particle size where 95% can pass through a 1.2 mm sieve.
The spray tank was filled with 900 L of water. The recirculation or agitation system was driven by a power take off (“PTO”) from the tractor. The recirculation system consisted of a wet boom, submerged at the base of the tank with outlets to one side of the tank's midline. […] This is acceptable agitation by commercial spray boom standards.
With the PTO operating, a blend made from 0.979 kg of the surfactant Empigen BB and 1.57 kg of the monoethanolamine was poured into the tank and allowed to disperse for one minute.
4.26 kg of glyphosate acid was then tipped into the water.
A commercial “Silvan” brand Trailing Boom Spray fitted with a 1000 L tank was use for this experiment. The boom was 10 m wide.
Glyphosate acid (purity 95%) with a particle size where 95% can pass through a 0.5 mm sieve.
The spray tank was filled with 900 L of water. The recirculation or agitation system was driven by a PTO from the tractor. The recirculation system consisted of a wet boom at the base of the tank with outlets to one side of the tank's midline. […] This is adequate agitation by commercial spray boom standards.
4.26 kg of the milled glyphosate acid was tipped into the water.
A commercial “Silvan” Trailing Boom Spray fitted with a 1000 L tank was use for this experiment. The boom was 10 m wide.
Glyphosate acid (purity 95%) with a particle size where 95% can pass through a 1.2 mm sieve but not through a 0.5 mm sieve.
A blend made from 0.979 kg of the surfactant Empigen BB, a cocobetaine surfactant, and 1.57 kg of the monoethanolamine (MEA) was poured into the tank and allowed to disperse for one minute. A sample of water was collected and analysed for pH.
A plastic mesh insert with holes of 3-4 mm diameter was fitted into the mouth of the tank and 4.26 kg of glyphosate acid was tipped into the insert. […]
A sample of water was then taken and analysed for pH.

[2] = Dissolution of glyphosate acid on stirring into diluted Alkali Surfactant Blend in 20 L buckets; format: physicochemical; conditions: bucket, at the higher concentrations
Experimental: Approximately 13 L of water was added to each of five 20 litre (“L”) plastic buckets (Table 1). Pack 1 was made by taking 37.5 parts monoethanolamine (“MEA”) and 25.3 parts of a cocobetaine surfactant called Empigen BB from Huntsman Chemical Company Australia. Pack 1 was also called the Alkaline-Surfactant Blend in this and later examples.
Glyphosate acid technical material with a purity of 95% and a particle size smaller than 1 mm (Pack 2) was then added to the buckets at the rates given in Table 1 and stirred with a plastic paddle until all the acid disappeared. This took 3-5 minutes at the higher concentrations.
Approximately 13 L of water was added to seven 20 L plastic buckets (Table 5). A blend of 37.5 parts MEA and 25.3 parts of the cocobetain surfactant Empigen BB was made to form the Alkali Surfactant Blend (Pack 1). Glyphosate acid (Pack 2) with a purity of 95% was then added to the buckets at the rates given in Table 5 and stirred with a plastic paddle until all the acid disappeared. This took 3-5 minutes at the higher concentrations.
Approximately 13 L of water was added to seven 20 L plastic buckets (Table 22). The Alkali Surfactant Blend of monoethanolamine and the cocamidopropyl betaine (Pack 1) was then added to the water at the rates given in the Table. […]

SMILES: O=C(O)CNCP(=O)(O)O [glyphosate acid, N-phosphonomethyl glycine]
- dissolution of glyphosate acid in spray tank ([1]; Example 4: 4.26 kg acid (95% passes 1.2 mm sieve) tipped into 900 L water with MEA/Empigen BB blend, agitated, no mesh insert): almost all disappeared over the next 5 minutes
- time for glyphosate acid to disappear in spray tank ([1]; Example 5: 4.26 kg milled acid (95% passes 0.5 mm sieve) tipped into 900 L water with MEA/Empigen BB blend, agitated, no mesh insert): ≤ 10 min
- undissolved acid in spray tank after washing through mesh ([1]; Example 6: 4.26 kg acid washed through 3-4 mm plastic mesh insert over 1-2 minutes into 900 L water with MEA/Empigen BB blend): no evidence of undissolved acid
- time stirred until all the acid disappeared ([2]; about 13 L water with MEA/Empigen BB blend): 3 to 5 min
- time stirred until all the acid disappeared ([2]; about 13 L water with MEA/cocamidopropyl betaine blend): approximately 3 minutes
